Experimental data published in BindingDB's records for doi:10.7270/Q25D8Q92 (Burnham Center For Chemical Genomics, 2011).

Target: T1, Bcl-2-related protein A1 (Mus musculus, UniProt Q07440)
T1 sequence (Q07440 whole entry): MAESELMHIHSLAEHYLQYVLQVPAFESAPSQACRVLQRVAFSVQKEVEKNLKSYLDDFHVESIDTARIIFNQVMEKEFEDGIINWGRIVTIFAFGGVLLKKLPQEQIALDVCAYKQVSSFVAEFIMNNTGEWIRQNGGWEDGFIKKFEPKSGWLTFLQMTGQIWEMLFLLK
Test: Bfl-1 activity inhibition – biochemical, dose response (AID 504689)

Row | Structure (SMILES) | IC50
1 | O=C1N=c2ccccc2=C1NNC(=S)NCC1CCCO1 (stereo not given) | > 20 µM
2 | Cc1cccc(NC(=S)NNC2=c3ccccc3=NC2=O)c1 | > 20 µM
3 | COc1ccc(CN=Nc2cc(C)nc3ccc(OC)cc23)c(OC)c1 | 11.4 µM
4 | Cc1cc(C)c2c(c1)=C(NNC(=S)NCC1CCCO1)C(=O)N=2 (stereo not given) | > 20 µM
5 | O=C1Nc2ccc([N+](=O)[O-])cc2C1=NNC(=S)NCC1CCCO1 (stereo not given) | > 20 µM
6 | NC(=S)NN=C1C(=O)N(CCCl)c2ccccc21 | > 20 µM
7 | COC(=O)c1ccc(CN2C(=O)C(=NNC(N)=S)c3ccccc32)o1 | > 20 µM
8 | CCOC(=O)C1C(COC(=O)c2ncc(Cl)c(Cl)c2Cl)=NC(=O)NC1C (stereo not given) | > 20 µM
9 | COCCNC(=S)NN=C1C(=O)Nc2ccc([N+](=O)[O-])cc21 [1-(2-methoxyethyl)-3-[(5-nitro-2-oxoindol-3-yl)amino]thiourea] | > 20 µM
10 | O=C1Nc2ccccc2/C1=N/NC(=S)Nc1ccc(O)cc1 [1-(4-hydroxyphenyl)-3-[(2-oxidanylideneindol-3-yl)amino]thiourea] | > 20 µM
11 | CCCCNC(=S)N/N=C1\C(=O)Nc2ccccc21 [1-butyl-3-[(2-oxidanylideneindol-3-yl)amino]thiourea] | > 20 µM
12 | CCNC(=S)NNC1=c2cc(C(C)C)ccc2=NC1=O [1-ethyl-3-[(2-oxo-5-propan-2-yl-3-indolyl)amino]thiourea] | > 20 µM
13 | CCN(CC)CCOC(=O)c1ccc(N=CC(C#N)c2nc(-c3ccc4c(c3)OCO4)cs2)cc1 (stereo not given) [2-(diethylamino)ethyl 4-[[(Z)-2-[4-(1,3-benzodioxol-5-yl)-1,3-thiazol-2-yl]-2-cyano-ethenyl]amino]benzoate] | 1.72 µM
14 | CCN(CC)CCOC(=O)c1ccc(N=CC(C#N)c2nc(-c3cc4ccccc4oc3=O)cs2)cc1 (stereo not given) [2-(diethylamino)ethyl 4-[[(Z)-2-cyano-2-[4-(2-oxochromen-3-yl)-1,3-thiazol-2-yl]ethenyl]amino]benzoate] | 0.55 µM
15 | CCN(CC)CCOC(=O)c1ccc(N=CC(C#N)c2nc(-c3ccc(OC)cc3)cs2)cc1 (stereo not given) [4-[[(Z)-2-cyano-2-[4-(4-methoxyphenyl)-2-thiazolyl]ethenyl]amino]benzoic acid 2-(diethylamino)ethyl ester] | 2.99 µM
16 | CC(=O)N1N=C(C2C(=O)N(C)C(=O)N(C)C2=O)CC1c1ccccc1 (stereo not given) [5-(1-acetyl-5-phenylpyrazolidin-3-ylidene)-1,3-dimethyl-1,3-diazinane-2,4,6-trione] | > 20 µM
17 | N=C(N)C1=CC(=O)/C(=C/C=c2ccc(=C(N)N)cc2)C=C1 [(4E)-4-[2-[4-[bis(azanyl)methylidene]cyclohexa-2,5-dien-1-ylidene]ethylidene]-3-oxidanylidene-cyclohexa-1,5-diene-1-carboximidamide;2-oxidanylethanesulfonic acid] | > 20 µM
18 | C#CCOCCOCCOCCNc1nc(N2CCN(C(=O)CCCCCCCCCCNC(=O)[C@H](CCCCN)n3cc(CCCC(=O)O)nn3)CC2)nc(N2CCN(C(=O)CCCCCCCCCCNC(=O)[C@H](CCCN=C(N)N)n3cc(C[C@@H](C)CC)nn3)CC2)n1 [EK-IR] | 13.9 µM
19 | C#CCOCCOCCOCCNc1nc(N2CCN(C(=O)CCCCCCCCCCNC(=O)[C@H]([C@@H](C)CC)n3cc(CCCCN=C(N)N)nn3)CC2)nc(N2CCN(C(=O)CCCCCCCCCCNC(=O)[C@@H]([C@H](C)O)n3cc(C)nn3)CC2)n1 [GT-RI] | > 20 µM
20 | C#CCOCCOCCOCCNc1nc(N2CCN(C(=O)CCCCCCCCCCNC(=O)Cn3cc(CCCCCN)nn3)CC2)nc(N2CCN(C(=O)CCCCCCCCCCNC(=O)[C@H]([C@@H](C)CC)n3cc(CCCCN=C(N)N)nn3)CC2)n1 [KG-RI] | 9.73 µM
21 | C#CCOCCOCCOCCNc1nc(N2CCN(C(=O)CCCCCCCCCCNC(=O)Cn3cc(CCCCCN)nn3)CC2)nc(N2CCN(C(=O)CCCCCCCCCCNC(=O)Cn3cc(C[C@@H](C)O)nn3)CC2)n1 [KG-TG] | > 20 µM
22 | C#CCOCCOCCOCCNc1nc(N2CCN(C(=O)CCCCCCCCCCNC(=O)[C@H]([C@@H](C)CC)n3cc(CCCCCN)nn3)CC2)nc(N2CCN(C(=O)CCCCCCCCCCNC(=O)[C@H](CCCCN)n3cc(CCCC(=O)O)nn3)CC2)n1 [KI-EK] | > 20 µM
23 | C#CCOCCOCCOCCNc1nc(N2CCN(C(=O)CCCCCCCCCCNC(=O)[C@@H](CCC(=O)O)n3cc(CCCCCN)nn3)CC2)nc(N2CCN(C(=O)CCCCCCCCCCNC(=O)[C@H]([C@@H](C)CC)n3cc(CCCCCN)nn3)CC2)n1 [KI-KE] | > 20 µM
24 | C#CCOCCOCCOCCNc1nc(N2CCN(C(=O)[C@H](Cc3cc4ccccc4[nH]3)n3cc([C@@H](N)CC(C)C)nn3)CC2)nc(N2CCN(C(=O)[C@H](Cc3cc4ccccc4[nH]3)n3cc([C@@H](N)CC(C)C)nn3)CC2)n1 [LW-LW] | 19.7 µM
25 | CCOC(=O)c1c(C)c2c(n1C)CCCC2N=O (stereo not given) [MLS000026784] | > 20 µM

Row | Structure (SMILES) | IC50
26 | C#CCOCCOCCOCCNc1nc(N2CCN(C(=O)[C@H](CCCCN)n3cc([C@@H](N)C(C)CC)nn3)CC2)nc(N2CCN(C(=O)[C@H](Cc3cc4ccccc4[nH]3)n3cc([C@@H](N)C(C)CC)nn3)CC2)n1 (stereo not given in full) [MLS000562580] | > 20 µM
27 | C#CCOCCOCCOCCNc1nc(N2CCN(C(=O)[C@H](Cc3cc4ccccc4[nH]3)n3cc([C@@H](N)C(C)CC)nn3)CC2)nc(N2CCN(C(=O)[C@H](CCCCN)n3cc([C@@H](N)CC(C)C)nn3)CC2)n1 (stereo not given in full) [MLS000562581] | > 20 µM
28 | COCCNC(=S)NNC1=c2cc(C)cc(C)c2=NC1=O [MLS000774564] | > 20 µM
29 | COc1cc2c3c(c1)/C(=N/NC(N)=S)C(=O)N3C(C)(C)C=C2C [MLS000807018] | > 20 µM
30 | CCOC(=O)C1C(COC(=O)c2cc(OC)c(OC)c(OC)c2)=NC(=O)NC1C (stereo not given) [MLS001161811] | > 20 µM
31 | Oc1c(Cc2cnc[nH]2)[nH]c(=S)n1-c1ccccc1 [MLS001163810] | > 20 µM
32 | C#CCOCCOCCOCCNc1nc(N2CCN(C(=O)CCCCCCCCCCNC(=O)Cn3cc(C[C@@H](C)O)nn3)CC2)nc(N2CCN(C(=O)CCCCCCCCCCNC(=O)[C@H](CCCN=C(N)N)n3cc(C[C@@H](C)CC)nn3)CC2)n1 [MLS002153601] | 10.1 µM
33 | C#CCOCCOCCOCCNc1nc(N2CCN(C(=O)CCCCCCCCCCNC(=O)[C@H](CCCCN)n3cc(CCO)nn3)CC2)nc(N2CCN(C(=O)CCCCCCCCCCNC(=O)[C@H](CCCCN)n3cc(CCCC(=O)O)nn3)CC2)n1 [MLS002153608] | > 20 µM
34 | C#CCOCCOCCOCCNc1nc(N2CCN(C(=O)CCCCCCCCCCNC(=O)[C@H](CCCCN)n3cc(C)nn3)CC2)nc(N2CCN(C(=O)CCCCCCCCCCNC(=O)[C@H](CCCN=C(N)N)n3cc(C[C@@H](C)CC)nn3)CC2)n1 [MLS002153614] | 6.58 µM
35 | C#CCOCCOCCOCCNc1nc(N2CCN(C(=O)CCCCCCCCCCNC(=O)[C@H](CCCCN)n3cc(CCO)nn3)CC2)nc(N2CCN(C(=O)CCCCCCCCCCNC(=O)[C@H](CCCCN)n3cc(CCO)nn3)CC2)n1 [MLS002153615] | > 20 µM
36 | C#CCOCCOCCOCCNc1nc(N2CCN(C(=O)CCCCCCCCCCNC(=O)[C@H](CCCCN)n3cc(C)nn3)CC2)nc(N2CCN(C(=O)CCCCCCCCCCNC(=O)[C@@H]([C@H](C)CC)n3cc(CCCCCN)nn3)CC2)n1 [MLS002153655] | 8.02 µM
37 | C#CCOCCOCCOCCNc1nc(N2CCN(C(=O)CCCCCCCCCCNC(=O)Cn3cc(CCCCCN)nn3)CC2)nc(N2CCN(C(=O)CCCCCCCCCCNC(=O)[C@H](CO)n3cc(CCCSC)nn3)CC2)n1 [MLS002153667] | 11.8 µM
38 | C#CCOCCOCCOCCNc1nc(N2CCN(C(=O)CCCCCCCCCCNC(=O)[C@H](CCCCN)n3cc(CCO)nn3)CC2)nc(N2CCN(C(=O)CCCCCCCCCCNC(=O)[C@@H]([C@H](C)O)n3cc(C)nn3)CC2)n1 [MLS002153685] | > 20 µM
39 | C#CCOCCOCCOCCNc1nc(N2CCN(C(=O)CCCCCCCCCCNC(=O)Cn3cc(CCCCCN)nn3)CC2)nc(N2CCN(C(=O)CCCCCCCCCCNC(=O)[C@H]([C@@H](C)CC)n3cc(CCCCCN)nn3)CC2)n1 [MLS002153714] | > 20 µM
40 | C#CCOCCOCCOCCNc1nc(N2CCN(C(=O)CCCCCCCCCCNC(=O)[C@H]([C@@H](C)CC)n3cc(CCCCCN)nn3)CC2)nc(N2CCN(C(=O)CCCCCCCCCCNC(=O)[C@H]([C@@H](C)CC)n3cc(CCCCN=C(N)N)nn3)CC2)n1 [MLS002153718] | 6.1 µM
41 | C#CCOCCOCCOCCNc1nc(N2CCN(C(=O)CCCCCCCCCCNC(=O)[C@@H](CCSC)n3cc(CCO)nn3)CC2)nc(N2CCN(C(=O)CCCCCCCCCCNC(=O)[C@H](CCC(=O)O)n3cc(CCCCCN)nn3)CC2)n1 [MLS002153730] | > 20 µM
42 | C#CCOCCOCCOCCNc1nc(N2CCN(C(=O)CCCCCCCCCCNC(=O)[C@@H](CCSC)n3cc(CCO)nn3)CC2)nc(N2CCN(C(=O)CCCCCCCCCCNC(=O)[C@H](CO)n3cc(CCCCCN)nn3)CC2)n1 [MLS002153734] | > 20 µM
43 | C#CCOCCOCCOCCNc1nc(N2CCN(C(=O)[C@H](CCCN=C(N)N)n3cc(C(N)[C@H](C)CC)nn3)CC2)nc(N2CCN(C(=O)[C@H](CCCN=C(N)N)n3cc(C(N)[C@@H](C)CC)nn3)CC2)n1 (stereo not given in full) [MLS002473475] | > 20 µM
44 | COc1ccc2nc(C)cc(N=NCc3ccc(F)cc3)c2c1 [N-[(4-fluorophenyl)methylideneamino]-6-methoxy-2-methyl-4-quinolinamine] | 17 µM
45 | C#CCOCCOCCOCCNc1nc(N2CCN(C(=O)CCCCCCCCCCNC(=O)[C@H]([C@@H](C)CC)n3cc(CCCCN=C(N)N)nn3)CC2)nc(N2CCN(C(=O)CCCCCCCCCCNC(=O)[C@H](CCCCN)n3cc(C)nn3)CC2)n1 [RI-GK] | 8.52 µM
46 | CC1=CC(C)(C)N2C(=O)/C(=N\NC(N)=S)c3cccc1c32 [SMR000218901] | > 20 µM
47 | CC(C)NC(=S)NNC1=c2cc(C(C)C)ccc2=NC1=O [SMR000242097] | > 20 µM
48 | COc1cc(C2c3c(-c4cccs4)n[nH]c3OC(=N)C2C#N)cc(OC)c1O (stereo not given) [SMR000275523] | > 20 µM
49 | CCOc1ccc(-c2csc(NC(=O)c3cccc(-n4c(O)ccc4O)c3)n2)cc1 [SMR000319795] | > 20 µM
50 | C#CCOCCOCCOCCNc1nc(N2CCN(C(=O)[C@H](CCCCN)n3cc([C@@H](N)C(C)CC)nn3)CC2)nc(N2CCN(C(=O)[C@H](Cc3cc4ccccc4[nH]3)n3cc([C@@H](N)CC(C)C)nn3)CC2)n1 (stereo not given in full) [SMR000391070] | > 20 µM
